According to ChEMBL document CHEMBL3885861, “Open TG-GATES”:

Species: Rattus norvegicus
Assay: Open TG-GATES - Regimen: Single
Assay type: toxicity, organism-based, Sprague-Dawley
Parameters: regimen Single, gender Male, age 6 weeks
Details: in vivo, iv, 0 mg/kg, route intravenous injection, dose level Control; for APTT / Bas / Eos / Fbg / Hb / Ht / Lym / MCH / MCHC / MCV / Mono / PT / Plat / RBC / Ret / WBC: tissue Blood; for KIDNEY_L / KIDNEY_R / KIDNEY_TOTAL: tissue Kidney; for LIVER: tissue Liver; for ALP / ALT / AST / BUN / CRE / Ca / Cl / DBIL / GLC / IP / K / LDH / Na / PL / RALB / TBIL / TC / TG / TP / gamma-GTP: tissue Plasma

## CC(=O)OCC1=C(C(=O)O)N2C(=O)[C@@H](NC(=O)Cc3cccs3)[C@H]2SC1 [CEPHALOTHIN]
3 h
  TERMINAL_BW: 214.5 g
  APTT: 22.3 s
  Bas: 0%
  Eos: 0.8%
  Fbg: 274.6 mg/dL
  Hb: 13.2 g/dL
  Ht: 38.5%
  Lym: 80%
  MCH: 20.9 pg
  MCHC: 34.2%
  MCV: 61.2 fL
  Mono: 2.8%
  PT: 16.5 s
  Plat: 124.3 x10_4/uL
  RBC: 629.6 x10_4/ul
  Ret: 6.1%
  WBC: 84.8 x10_2/uL
  KIDNEY_L: 1 g
  KIDNEY_R: 1 g
  KIDNEY_TOTAL: 2 g
  LIVER: 10.2 g
  ALP: 1573.2 IU/L
  ALT: 46.4 IU/L
  AST: 85.6 IU/L
  BUN: 12.4 mg/dL
  CRE: 0.2 mg/dL
  Ca: 10.5 mg/dL
  Cl: 107.4 meq/L
  DBIL: 0 mg/dL
  GLC: 176.2 mg/dL
  IP: 7.6 mg/dL
  K: 4.3 meq/L
  LDH: 171.6 IU/L
  Na: 142 meq/L
  PL: 117.2 mg/dL
  RALB: 2.8 g/dL
  TBIL: 0.016 mg/dL
  TC: 60.8 mg/dL
  TG: 69.2 mg/dL
  TP: 5.1 g/dL
  gamma-GTP: 1 IU/L
6 h
  TERMINAL_BW: 214.9 g
  APTT: 22.2 s
  Bas: 0%
  Eos: 0.8%
  Fbg: 279.4 mg/dL
  Hb: 13.1 g/dL
  Ht: 38.1%
  Lym: 74.2%
  MCH: 21.1 pg
  MCHC: 34.3%
  MCV: 61.7 fL
  Mono: 2.4%
  PT: 16.2 s
  Plat: 129.1 x10_4/uL
  RBC: 618.8 x10_4/ul
  Ret: 6.4%
  WBC: 81.7 x10_2/uL
  KIDNEY_L: 1 g
  KIDNEY_R: 1 g
  KIDNEY_TOTAL: 2 g
  LIVER: 9.1 g
  ALP: 1313 IU/L
  ALT: 41.6 IU/L
  AST: 80 IU/L
  BUN: 9.2 mg/dL
  CRE: 0.2 mg/dL
  Ca: 10.2 mg/dL
  Cl: 105.4 meq/L
  DBIL: 0.002 mg/dL
  GLC: 184.8 mg/dL
  IP: 9.3 mg/dL
  K: 4.3 meq/L
  LDH: 176.2 IU/L
  Na: 141.4 meq/L
  PL: 122 mg/dL
  RALB: 2.8 g/dL
  TBIL: 0.02 mg/dL
  TC: 67.8 mg/dL
  TG: 41 mg/dL
  TP: 5.1 g/dL
  gamma-GTP: 1.4 IU/L
9 h
  TERMINAL_BW: 217.3 g
  APTT: 23.9 s
  Bas: 0%
  Eos: 1%
  Fbg: 305.4 mg/dL
  Hb: 13.5 g/dL
  Ht: 39.5%
  Lym: 81.4%
  MCH: 21 pg
  MCHC: 34%
  MCV: 61.6 fL
  Mono: 2%
  PT: 15.7 s
  Plat: 132.6 x10_4/uL
  RBC: 641.6 x10_4/ul
  Ret: 6.4%
  WBC: 93.1 x10_2/uL
  KIDNEY_L: 0.9 g
  KIDNEY_R: 1 g
  KIDNEY_TOTAL: 1.9 g
  LIVER: 9 g
  ALP: 1321.4 IU/L
  ALT: 37.2 IU/L
  AST: 81.2 IU/L
  BUN: 9.2 mg/dL
  CRE: 0.2 mg/dL
  Ca: 10.4 mg/dL
  Cl: 106.2 meq/L
  DBIL: 0 mg/dL
  GLC: 186.6 mg/dL
  IP: 9.6 mg/dL
  K: 4.3 meq/L
  LDH: 157.4 IU/L
  Na: 141.6 meq/L
  PL: 121.8 mg/dL
  RALB: 2.9 g/dL
  TBIL: 0.022 mg/dL
  TC: 67.4 mg/dL
  TG: 60 mg/dL
  TP: 5.3 g/dL
  gamma-GTP: 1.2 IU/L
24 h
  TERMINAL_BW: 225.8 g
  APTT: 21 s
  Bas: 0%
  Eos: 0.8%
  Fbg: 302.4 mg/dL
  Hb: 12.9 g/dL
  Ht: 37.9%
  Lym: 79.2%
  MCH: 21.2 pg
  MCHC: 33.9%
  MCV: 62.3 fL
  Mono: 2.4%
  PT: 16.5 s
  Plat: 128.1 x10_4/uL
  RBC: 607.2 x10_4/ul
  Ret: 6.3%
  WBC: 89.6 x10_2/uL
  KIDNEY_L: 1 g
  KIDNEY_R: 1 g
  KIDNEY_TOTAL: 1.9 g
  LIVER: 10.8 g
  ALP: 1398.6 IU/L
  ALT: 44.4 IU/L
  AST: 76.2 IU/L
  BUN: 17.2 mg/dL
  CRE: 0.2 mg/dL
  Ca: 10.9 mg/dL
  Cl: 105.8 meq/L
  DBIL: 0 mg/dL
  GLC: 189.4 mg/dL
  IP: 7.3 mg/dL
  K: 4.5 meq/L
  LDH: 221 IU/L
  Na: 142.4 meq/L
  PL: 145.8 mg/dL
  RALB: 3 g/dL
  TBIL: 0.012 mg/dL
  TC: 74.4 mg/dL
  TG: 74.6 mg/dL
  TP: 5.5 g/dL
  gamma-GTP: 1.4 IU/L
